Source: patent US20240398831A1, “COMPOSITIONS COMPRISING SMALL MOLECULE REGULATORS OF TUMOR IMMUNITY AND METHODS OF USING SAME” (Duke University, priority 2021, published 2024)

Assays:
CD4+ and CD8+ T cells = experiment: T cell proliferation assay and staining, direct treatment of T cells in vitro; format: cell-based, mouse; details: E2 (1 nM)+fulvestrant (100 nM), 3 days
From the text: FIG. 17C and FIG. 17H show the percentage of CD44^+CD69^+ activated CD8^+ T cells (FIG. 17C) and CD4^+ T cells (FIG. 17H) from experiments described above. FIG. 17D and FIG. 17I show the percentage of GZMB^+ activated CD8^+ T cells (FIG. 17D) and CD4^+ T cells (FIG. 17I) from experiments described above. FIG. 17E and FIG. 17J show the percentage of IFNγ^+ activated CD8^+ T cells (FIG. 17E) and CD4^+ T cells (FIG. 17J) from experiments described above. Data are expressed as individual data points and represented as mean±S.E.M. Significance was calculated by one way ANOVA.
T cell proliferation assay and staining. CD3+ T cells were isolated from the spleens of C57BL/6J or P-mel mice with magnetic bead-based T cell isolation kit (Cat #19851, StemCell Technologies). T cells from naïve mice were stained with 5 μM CFSE (Cat #C34554, ThermoFisher Scientific) for 5 minutes in PBS+5% CFS with rapid vortexing following which the cells were washed twice with PBS. Stained T cells were then counted and plated in 96-well plates coated with anti-CD3 antibody (0.5 μg/mL, Cat #19851, ThermoFisher Scientific) anti-CD28 antibody (1 μg/mL, Cat #16-0281-86, Thermo Fisher Scientific) at desired density (250,000 T cells/50,000 CD11b or BMDM) in the presence of IL2 (50 ng/mL) (Cat #212-12, PeproTech). […]

B16F10 cells = experiment: Quantitative PCR of ER target genes in melanoma cells; format: cell-based, mouse; details: E2 1 nM, 16 hr
B16F10 tumors = experiment: B16F10 tumor growth in ovariectomized NSG mice; format: in vivo, mouse
Procedure: Tumor formation in these mice were induced with a single intradermal dose of 150 μg of 4-hydroxytamoxifen (4OHT). […] FIGS. 6A-6B and FIGS. 6E-6F are representative of two independent experiments. Data are expressed as mean t S.E.M. Significance was calculated using the Student's t test (FIG. 6C and FIG. 6H), log-rank test (FIG. 6D and FIG. 6G), and two-way ANOVA followed by Bonferroni's multiple correction (FIGS. 6A-6B, FIGS. 6E-6F, and FIG. 6I) (*p<0.05, *p<0.01, and ***<0.001).
Mice. C57BL/BJ, LysMCre (B6.129P2-Lyz2^tm1(cre)lfo/J) Pmel (B6.Cg-Thy1^a/Cy Tg(TcraTcrb)8Rest/J) mice were from Jackson Laboratories (Bar Harbor, ME). Age matched mice were used for all the studies. LysMCre mice were bred to Esr1^f/f mice to generate Esr1^f/f; LysMCre and littermate control LysMCre and Esr1^f/f mice. iBP (Braf^V600E/WT, Pten^f/fmTyrCreERT2) mice were generated by crossing breeders Braf^WT/WT/Pten^f/f, mTyrCreERT2 mice to BRAF^V600E, Pten^f/f mice. The mice were housed in secure animal facility cages in 12 hour light:dark cycles at temperature around 25° C. and 70% humidity. […]
Tumor models and cells. […] Tumors were measured thrice weekly using an electronic caliper. Tumor volumes were calculated by the formula V=L×(W×W)/2. For iBP mouse tumors, volumes were calculated by the formula V=L×B×H. For tumor growth rate studies mice were euthanized when the tumors reached a maximum size of 2000 mm^3.

CD3+ T cells = experiment: T cells co-cultured with tumor infiltrating CD11b+ myeloid cells from iBP tumors; format: cell-based, mouse; details: myeloid cells from E2 vs placebo treated mice, 72 hr
Procedure: T cell proliferation assay and staining. CD3+ T cells were isolated from the spleens of C57BL/6J or P-mel mice with magnetic bead-based T cell isolation kit (Cat #19851, StemCell Technologies). T cells from naïve mice were stained with 5 μM CFSE (Cat #C34554, ThermoFisher Scientific) for 5 minutes in PBS+5% CFS with rapid vortexing following which the cells were washed twice with PBS. Stained T cells were then counted and plated in 96-well plates coated with anti-CD3 antibody (0.5 μg/mL, Cat #19851, ThermoFisher Scientific) anti-CD28 antibody (1 μg/mL, Cat #16-0281-86, Thermo Fisher Scientific) at desired density (250,000 T cells/50,000 CD11b or BMDM) in the presence of IL2 (50 ng/mL) (Cat #212-12, PeproTech). 72 hr after plating the cells were incubated with protein transport inhibitors brefeldin (Cat #00-4506-51, Thermo Fisher Scientific) and monensin (Cat #00-4505-51, Thermo Fisher Scientific) for 6 hr at a final concentration of 2 μM monensin and 3 μg/mL brefeldin after which they were collected and were processed for staining for flow cytometry.
These cells were then co-incubated with CD3^+ T cells isolated from the spleens of non-tumor bearing Pmel mice (Thy1^a/Cy Tg(TcraTcrb)8Rest/J) for 72 hr. iBP tumors express gp100 (Pmel) that can be processed and presented by professional antigen presenting cells to T cells that are specific to the antigen (gp100). Prior to coincubation, T cells were stained with the Carboxyfluorescein succinimidyl ester (CFSE) dye and activated in the presence of sub-optimal CD3/CD28. […] In this experiment, the phenotypic characteristics of the isolated myeloid cells were not defined, i.e., bone marrow derived vs resident macrophages.

Compound	proliferation or cytotoxic capabilities of CD4+ or CD8+ T cells (CD4+ and CD8+ T cells)	expression of classical ER target genes (Pgr and Cxc112) (B16F10 cells)	slower tumor growth kinetics imparted by ovariectomy (placebo vs E2) (B16F10 tumors)	T cell (both CD4+ and CD8+) proliferation, CFSE dye dilution (CD3+ T cells)	expression of IFNγ in CD8+ and CD4+ T cells (CD3+ T cells)	expression of granzyme B (GZMB) in CD8+ and CD4+ T cells (CD3+ T cells)
C[C@]12CC[C@@H]3c4ccc(O)cc4C[C@@H](CCCCCCCCC[S+]([O-])CCCC(F)(F)C(F)(F)F)[C@H]3[C@@H]1CC[C@@H]2O (stereo partly drawn) [fulvestrant]	did not affect					
17β-estradiol [E2]		did not lead to changes	disappeared	significantly inhibited	decreased expression	decreased expression
